Consider six compounds from US9655865B2, “Therapeutic treatment for metabolic syndrome, type 2 diabetes, obesity, or prediabetes” (VeroScience, LLC, priority 2002, dated 2017).

What all share (type): in vivo
In experiment [1] the test system is obese, diabetic female ob/ob mice. The experiment can be described thus: Fusaric acid and SKF 38393, alone and combined, 14 days in ob/ob mice (Example 4). The following applies: fusaric acid 15 mg/kg, SKF 38393 10 mg/kg; for retroperitoneal fat pad weight / plasma triglyceride level: 14 days; for retroperitoneal fat pad weight: control 727+/−25; for plasma triglyceride level: controls 155+/−15; for blood glucose: once daily 14 days, controls 380+/−30. Here is the method: Fusaric acid is a dopamine beta hydroxylase inhibitor that reduces noradrenaline synthesis in noradrenergic neurons. It is not present in dopaminergic neurons and thus exerts no such effect there. SKF38393 is a post-synaptic dopamine D1 receptor agonist with no marked influence on noradrenergic neurons. A study was conducted to determine the interactive effects of fusaric acid plus SKF 38393 on body fat store levels, and blood glucose and plasma triglyceride levels in ob/ob mice. The ob/ob mouse is hyperphagic, obese, insulin resistant, diabetic and dyslipidemic due to the absence of functional leptin as a result of a mutation in this gene.
Obese, diabetic female ob/ob mice (body weight of approximately 33 g) maintained on 14 hour daily photoperiods, housed one per cage and allowed to feed ad libitum were randomized to once daily treatment with either fusaric acid (15 mg/kg; n=6-8), SKF 38393 (10 mg/kg; n=6-8), both fusaric acid (15 mg/kg) and SKF 38393 (10 mg/kg) (n=6-8), or vehicle (control group; n=6-8) for a 14 day period. On the fifteenth day of the study and approximately 24 hours after the final treatment animals were sacrificed and blood samples were obtained for the analyses of blood glucose, plasma free fatty acid and triglyceride levels. Relative to controls, fusaric acid raised blood glucose from 380+/−30 mg/dl to 430+/−30 mg/dl and SKF 38393 reduced blood glucose to 290+/−55 mg/dl. However, fusaric acid plus SKF 38393 reduced blood glucose to 180+/−20 mg/dl. […] Neither fusaric acid nor SKF 38393 had any effect on retroperitoneal fat pad weight (735+/−43 mg and 735+/−50 mg, respectively versus control value of 727+/−25 mg) however, the combination of fusaric acid plus SKF 38393 reduced retroperitoneal fat pad weight to 680+/−25 mg.

The test system is the same in experiment [2]. The experiment can be described thus: Amphetamine with or without bromocriptine, 14 days in ob/ob mice (Example 3). The following applies: amphetamine 3 mg/kg. The text has this: Amphetamine is a selective presynaptic dopamine release enhancer. It also acts as a presynaptic noradrenergic release enhancer but at higher dosages that will counter the effect of the dopamine reuptake inhibition activity to improve metabolism. However, addition of a dopamine D2 receptor agonist will act to reduce any amphetamine-induced increase in synaptic noradrenaline level and therefore should produce a more pronounced desired effect on metabolic disease than amphetamine or the D2 receptor agonist alone. A study was conducted to determine the effects of low dose amphetamine (3 mg/kg) with or without the dopamine D2 receptor agonist bromocriptine (5-<10 mg/kg dose) upon body weight gain, blood glucose, plasma free fatty acid and triglyceride levels in obese, diabetic mice (ob/ob strain). […] The ob/ob mouse is hyperphagic, obese, insulin resistant, diabetic and dyslipidemic due to the absence of functional leptin as a result of a mutation in this gene. Starvation or calorie restriction of these mice leads to increases in plasma free fatty acid levels that can function over the long term to worsen diabetes.
On the fifteenth day of the study and approximately 24 hours after the final treatment animals were sacrificed and blood samples were obtained for the analyses of blood glucose, plasma free fatty acid and triglyceride levels.

The test system of experiment [3] is obese, diabetic mice (ob/ob strain). The experiment can be described thus: GBR 12909 once daily for 14 days in obese, diabetic ob/ob mice (Example 1). The settings on record: 30 mg/kg once daily 14 days. The procedure:
GBR 12909 (1-(2-[bis(4-Fluorophenyl)methoxy]ethyl)-4-(3-phenylpropyl)piperazine dihydrochloride) is a specific dopamine reuptake inhibitor. Systemic administration of GBR 12909 can increase the dopaminergic to noradrenergic neuronal activity in the central nervous system. A study was conducted to determine the effects of GBR 12909 upon blood glucose and plasma free fatty acid levels in obese, diabetic mice (ob/ob strain). The ob/ob mouse is hyperphagic, obese, insulin resistant, diabetic and dyslipidemic due to the absence of functional leptin as a result of a mutation in this gene. Starvation or calorie restriction of these mice leads to increases in plasma free fatty acid levels that can function over the long term to worsen diabetes.
Different groups of obese, diabetic female (ob/ob) mice (body weight of approximately 33 g) maintained on 12 hour daily photoperiods, housed one per cage and allowed to feed ad libitum were randomized to once daily treatment with either a specific dopamine reuptake inhibitor, GBR 12909 at a dose of 30 mg/kg body weight (n=5-7) or vehicle (control group; n=5-7) for a 14 day period. On the fifteenth day of the study and approximately 24 hours after the final treatment animals were sacrificed and blood samples were obtained for the analyses of blood glucose and plasma free fatty acid and triglyceride levels.

For experiment [4], the system named is obese, diabetic female ob/ob mice. The experiment can be described thus: GBR 12909 and clonidine, alone and combined, 14 days in ob/ob mice with mild diabetes (Example 2). The following applies: GBR 12909 about 20 mg/kg, clonidine about 0.1 mg/kg, once daily 14 days, controls 202+/−41. Here is the method:
GBR 12909 is a specific dopamine reuptake inhibitor. Its use can increase the dopaminergic to noradrenergic neuronal activity in the central nervous system. However, by combining GBR 12909 with clonidine, a noradrenergic alpha 2 receptor agonist with preferential affinity for presynaptic alpha 2 sites, it is possible to further increase the dopamine to noradrenaline neuronal activity ratio in the central nervous system. A study was conducted to determine the interactive effects of GBR 12909 and clonidine on blood glucose level in ob/ob mice.
Obese, diabetic female ob/ob mice (body weight of approximately 28 g) with mild diabetes were maintained on 14 hour daily photoperiods, housed one per cage and allowed to feed ad libitum. Different groups of these animals were randomized to once daily treatment with either a specific dopamine reuptake inhibitor, GBR 12909 at an approximate dose of 20 mg/kg body weight (n=4), or clonidine at an approximate dose of 0.1 mg/kg (n=5), these same dosages of GBR 12909 plus clonidine (n=3), or vehicle (control group; n=5-7) for a 14 day period. On the fifteenth day of the study and approximately 24 hours after the final treatment animals were sacrificed and blood samples were obtained for the analyses of blood glucose levels.

Experiment [5] has as its system Female mice fed a high fat diet for 20 weeks. The experiment can be described thus: GBR 12909 and FA, alone and combined, 14 days in high fat diet mice (Example 9). The settings on record: for body weight: 2 weeks treatment, normal weight for age matched controls=28 grams, FIG. 15; for plasma insulin levels: compared to lean controls, FIG. 12. The procedure: Female mice at 4 weeks of age were fed a high fat diet for 20 weeks to induce diabetes and insulin resistance and continued on such diet while treated for 14 days with either GBR 12909 (10 mg/kg), FA (15 mg/kg), GBR 12909 (10 mg/kg) plus FA (15 mg/kg), or vehicle and sacrificed after 14 days of treatment for the analyses of body fat, blood glucose, plasma insulin, and plasma nitric oxide levels. The composite of body fat store level, blood glucose and plasma insulin was reduced the greatest in the GBR/FA group and by a magnitude more than additive of the individual GBR and FA groups combined. Only the GBR/FA group normalized plasma insulin levels. […] This effect was not observed with either GBR or FA treatments alone.

Experiment [6] concerns male mice fed a high fat diet. The experiment can be described thus: GBR versus bupropion in high fat diet mice (Example 11). The procedure: The effect of increasing central dopamine neuronal activity versus increasing central dopamine plus norepinephrine neuronal activity on body fat, blood glucose, plasma insulin, and insulin sensitivity was studied in male mice fed a high fat diet from 4 weeks of age until 24 weeks of age. These mice were maintained on this high fat diet while treated with either GBR (20 mg/kg) (a selective dopamine reuptake inhibitor) or bupropion (20 mg/kg) (a dopamine and norepinpehrine reuptake inhibitor) at doses that approximate their 50% maximal effective dose for these functions in vivo in rodents.

Experiment [7] has as its system Female C57 Black mice fed a high simple sugar/moderate fat diet (western diet). The experiment can be described thus: GBR 12909, FA, clonidine and combinations in C57 Black mice on western diet, body fat (Example 6). The following applies: GBR 25 mg/kg, FA 10 mg/kg, clonidine 0.075 mg/kg, 14 days, FIG. 7.
Experiment [8] deals with high fat fed, hypertensive SHR rats. The experiment can be described thus: Quinelorane and fusaric acid, alone and combined, in high fat fed hypertensive SHR rats (Example 5). The following applies: SHR rats on high fat diet; for change from baseline body weight (weight loss): FA 12.5 mg/kg, FIGS. 1 and 2; for blood glucose: FIG. 6. The procedure: Male SHR rats were maintained on 14 hour daily photoperiods and fed a high fat diet (60% of energy from fat; 5.24 kcal/gram weight) for 3 weeks and then divided into different groups and treated with either quinelorane (Q; a dopamine D2/D3 mixed receptor agonist) (0.075 mg/kg), fusaric acid (FA; a dopamine beta hydroxylase inhibitor) (12.5 mg/kg), quinelorane (0.075 mg/kg) plus FA (Q/FA) (12.5 mg/kg), or vehicle at 13 hours after light onset for 17 days. The doses of Q and FA were set at less than half maximal to effect central dopamine receptor binding functions and dopamine beta hydroxylase activity, respectively. […] Blood pressure measurements were taken at 14 days of treatment and animals were sacrificed at 18 days of treatment for analyses of body fat and humoral factors and metabolites. […] Respecting blood glucose, although both Q and FA reduced glucose level relative to vehicle, only the Q/FA regimen normalized blood glucose in these animals relative to vehicle (FIG. 6).

Experiment [9] has as its system Female obese diabetic mice (ob/ob strain). Nature of the experiment: Bupropion and FA, alone and combined, 14 days in ob/ob mice (Example 7). The following applies: bupropion 40 mg/kg, FA 10 mg/kg, FIG. 9. Here is the method: Female obese diabetic mice (ob/ob strain) at 6 weeks of age were fed standard rodent chow and different groups of animals (n=5-7/group) were treated with bupropion (40 mg/kg), FA (10 mg/kg), bupropion (40 mg/kg) plus FA (10 mg/kg), or vehicle for 14 days and then sacrificed for the analyses of blood glucose and body fat store level. […] Moreover, these reductions were more than additive in magnitude relative to the effects of the individual compounds combined.

The mark [10] stands for this setting: GBR 12909 10 mg/kg, FA 15 mg/kg, 14 days.
Where [11] appears, read: relative to vehicle, sacrifice at 18 days.

Regarding `Cl.Oc1cc2c(cc1O)C(c1ccccc1)CNCC2` (centres unmarked) [SKF 38393, 1-phenyl-7,8-dihydroxy-2,3,4,5-tetrahydro-1H-3-benzazepine hydrochloride], in experiment [1], the “retroperitoneal fat pad weight” value came to 735 ± 50 mg, the plasma triglyceride level worked out at 130 ± 7 mg/dL and the blood glucose was 290 ± 55 mg/dL.
As for `CC(N)Cc1ccccc1` (centres unmarked) [amphetamine], the “plasma free fatty acid levels” value in experiment [2] (14 days, controls 900+/−100) stood at 510 ± 30 µM. The final body weight result in [2] (bromocriptine 5-<10 mg/kg, 14 days, controls 44+/−1) was “no effect”. For the same compound, the plasma triglyceride levels in experiment [2] (bromocriptine 5-<10 mg/kg, 14 days, controls 175+/−21) stood at 70 ± 7 mg/dL. The same compound gave a blood glucose in experiment [2] (bromocriptine 5-<10 mg/kg, once daily 14 days, controls 422+/−46) of 348 ± 22 mg/dL.
Regarding `Cl.Cl.Fc1ccc(C(OCCN2CCN(CCCc3ccccc3)CC2)c2ccc(F)cc2)cc1` [GBR 12909, 1-(2-[bis(4-Fluorophenyl)methoxy]ethyl)-4-(3-phenylpropyl)piperazine dihydrochloride], in experiment [3], the “reduction of plasma triglyceride level relative to controls” value is “approximately 32%”. Besides, the blood glucose in experiment [3] (about 24 h after final treatment, controls 455+/−50) is 145 ± 25 mg/dL; in experiment [4] it was 221 ± 31 mg/dL; in [5] (GBR 12909 10 mg/kg, FA 15 mg/kg, 14 days, FIG. 11), “no significant effect”; in experiment [6] (20 mg/kg, relative to vehicle and Bupropion, FIG. 18), “significantly reduced”. The same compound displayed a final body weight in experiment [3] (controls 42+/−2) of 28 ± 0.5 g. In addition, the “plasma free fatty acid levels” value in experiment [3] (controls 780+/−40) was 450 ± 20 µM. In experiment [5], the body weight entry was “not observed”. For the same compound, the plasma insulin levels result in [5] (setting [10]) is given as “significantly higher”. Also, the “body fat (intraabdominal fat pad)” value in experiment [6] (20 mg/kg, compared to vehicle and Bupropion, FIG. 17) was “significantly reduced”. Besides, in experiment [6] (20 mg/kg, compared to vehicle and Bupropion, FIG. 19), the HOMA-IR values entry is listed as “significantly reduced”. In addition, the “reduction of plasma insulin compared with bupropion” value in [6] (equal dose 20 mg/kg) is “much more effective”.
Take `Clc1cccc(Cl)c1NC1=NCCN1` [clonidine, 2-(2,6-dichloroanilino)-2-imidazoline]: the blood glucose in experiment [4] is 250 ± 35 mg/dL. The “body fat store level (intraabdominal fat pad)” value in [7] is reported as “no effect”.
Regarding `CCCCc1ccc(C(=O)O)nc1` [fusaric acid, 5-butyl-2-pyridinecarboxylic acid], in [1], the “retroperitoneal fat pad weight” value was 735 ± 43 mg, the plasma triglyceride level was 170 ± 27 mg/dL and the blood glucose came out at 430 ± 30 mg/dL. For the same compound, the “change from baseline body weight (weight loss)” value in experiment [8] (Q 0.075 mg/kg, 17 days) is reported as “modest if any effects”. Moreover, the blood glucose entry in experiment [8] (relative to vehicle) was “reduced”. In experiment [8] (setting [11]), the “plasma C-reactive protein (CRP) levels” value is “no significant effect”. For the same compound, in experiment [9], the blood glucose result is “no significant effect”. Further, the body weight result in experiment [5] is given as “not observed”. Also, the plasma insulin levels entry in experiment [5] (setting [10]) was “significantly higher”.
For `CCCN1CCC[C@@H]2Cc3nc(N)ncc3C[C@H]21` [Q], in experiment [8] (Q 0.075 mg/kg, 17 days), the “desensitization to the effects on weight loss” value was “exhibited desensitization” and the “change from baseline body weight (weight loss)” value is recorded as “modest if any effects”. Also, in [8] (relative to vehicle), the blood glucose entry was “reduced”. For the same compound, in experiment [8] (setting [11]), the “plasma endothelin-1 (endothelin 1-21 fragment)” value was “no significant effect” and the plasma nitric oxide result is given as “no significant effect”.
